# Assays:
# NB4 leukemia cells = experiment: Antiproliferation assay (XTT), NB4; assay type: cell-based; conditions: Homo sapiens, 360 h; 15-day treatment; non-MLL leukemia cells; read-out: NB4 EC50 (antiproliferative)
# Description: (§1) We next examined the spectrum of antitumor activity for compounds 1–4. These compounds were incubated with a panel of six human leukemia and solid tumor cell lines, including two MLL-rearranged leukemia cells MV4-11 and Molm-13 containing fusion oncogenes MLL-AF4 and -AF9, respectively. […] Also included in the studies are breast cancer MCF-7 and prostate cancer LNCaP cells. […]
# (§2) Proliferation inhibition assay for suspension leukemia cells was performed using an XTT assay kit (Roche) with our previously described method. Proliferation inhibition assay for solid tumor cell lines MCF-7 and LNCaP was performed using our previous described MTT assay. The antiproliferation EC50 values were determined by Prism, and the reported results were the mean values of at least three independent experiments.
# MV4-11 cells [1] = experiment: FACS-based Annexin-V apoptosis assay; assay type: cell-based, human
# Description: (§3) For Annexin V apoptosis assay, 10^5 cells/well were incubated with increasing concentrations of a compound for 7 or 14 days. Apoptosis was determined using the FITC Annexin V Apoptosis Detection Kit I (BD Bioscience) using the manufacturer’s protocol. For other FACS assays, cells were labeled with fluorochrome-conjugated monoclonal antibodies against human CD14, CD11b, CD45, or CD33 (BD Biosciences) according to the manufacturer’s recommendation. Cells were analyzed using a FACS Calibur (BD Biosciences/Applied Biosystems), and data were processed using the program Flowjo (version7.6.5).
# U937 leukemia cells = experiment: Antiproliferation assay (XTT), U937; assay type: cell-based; conditions: Homo sapiens, U-937, 360 h; 15-day treatment; non-MLL leukemia cells; read-out: U937 EC50 (antiproliferative)
# Description: as §1, §2
# MV4-11 cells [2] = experiment: FACS of differentiation markers CD14 / CD11b; assay type: cell-based, human; conditions: for cell populations expressing high levels of CD14: treatment for 12 days
# Description: Importantly, only these stem-like cancer cells can form new tumors when transplanted into a new host, while the other non-stem cancer cells fail to do so. These stem-like cancer cells are more drug resistant and believed to be responsible for tumor metastasis and relapse. […] CD14 and CD11b are two cell surface proteins characteristic to differentiated macrophages/monocytes. […] Similarly, incubation with 2 led to considerably more CD11b^+ cells (Fig. 3b).
# as §3
# [3] = tested on: human primary leukemia cells from an AML patient with MLL-ENL fusion oncogene; experiment: Colony-forming assay; assay type: cell-based; conditions: 336 h, colonies counted after 14 days, read-out: colony-forming ability EC50
# Description: Colony-forming assay using non-serum culture media represents a useful method to assess self-renewal capacity of stem-like cancer cells. The number of cell colonies formed in the assay reflects the proportion of stem-like cells in a given number of cancer cells. […] Human MLL-rearranged AML samples will be obtained from the Children’s Oncology Group (COG) Biopathology Center, in accordance with the IRB-approved protocol H-24170. The colony-forming assay was performed according to our previously published method. After 14 days, the colony number of each culture dish was counted and imported into Prism 5.0 and EC50 values were determined by using the sigmoidal dose response curve fitting in the software.
# [4] = tested on: HoxA9 and Meis1 expression in MV4-11 cells; experiment: Quantitative real-time PCR of HoxA9 and Meis1; assay type: cell-based, human
# Description: Next, we examined whether LSD1 inhibition can block the expression of HoxA9 and Meis1, whose overexpression has been observed in MLL-rearranged leukemia.
# For 3 days, 10^4 cells/well were incubated with a compound, and the RNA was extracted from cells using RNeasy mini kit (QIAGEN); 100–1000 ng of total RNA was reverse transcribed using iScript™ Reverse Transcription Supermix (Bio-Rad) using the manufacturer’s protocol. Quantitative real-time PCR was carried out using Fast SYBR Green Master Mix (Applied Biosystems) according to the manufacturer’s instructions. Measurements were performed in triplicate, using GAPDH as the reference gene. Real-time PCR was performed using Biosystems Step One Plus detection system. The following sequences of primers are used: […]
# H3K4me2 in MV4-11 cells = experiment: Western blot of histone H3K4 methylation; assay type: cell-based, human; conditions: 3 days
# Description: Compounds 1 and 2 were selected for further biological activity testing. MV4-11 cells were treated with these two compounds for 3 days. […] Other researchers observed the similar results using a different LSD1 inhibitor.
# With increasing concentrations of a compound for […], 10^6 cells/well were incubated and histones extracted with the EpiQuik™ Total Histone Extraction Kit (Epigentek) according to the manufacturer’s protocol. Equal amounts of histones (2 μg) were separated on SDS-PAGE and transferred to PVDF membranes. The blots were probed with H3K4-Me2 and H3 primary antibodies (Cell Signaling), followed by antirabbit IgG (Thermo Scientific) secondary antibodies.
# [5] = tested on: prostate cancer LNCaP cells; experiment: Antiproliferation assay (MTT), LNCaP; assay type: cell-based; conditions: Homo sapiens, 360 h, 15-day treatment, read-out: LNCaP EC50 (antiproliferative)
# Description: as §1, §2
# [6] = tested on: gene expression in MV4-11 cells; experiment: Microarray / GSEA; assay type: cell-based, human; conditions: 7 days
# Description: To this end, triplicate samples of MV4-11 cells were treated with compounds 1 and 2 and the RNA of these samples was isolated, amplified, and hybridized to Illumina HT-12 microarrays. The microarray data were log2-transformed and normalized to have the same median values for comparative analysis. Moderate t test was applied to search for genes that were differentially expressed between the control and compound treated samples, using the filter thresholds of p values <0.05 and fold changes >4. […] Next, we used gene set enrichment analysis (GSEA) in an effort to find the possible mechanism(s) for the LSD1 inhibition-mediated antileukemia activity.
# For 7 days, 10^5 cells/well were incubated with compounds. Cells were treated with Trizol® Reagent, frozen in liquid nitrogen, and shipped to Asuragen, Inc. (Austin, TX) for microarray experiments. RNA from these samples was isolated, amplified, and hybridized to Illumina Human HT-12 v4 arrays according to the manufacturer’s protocol. Microarray data were log2 transformed and normalized to have the same median for all the arrays. Moderate t statistics were used to find genes that were differentially expressed between the samples of interest. Benjamini and Hochberg method was used to correct for multiple comparisons. […]
Structure (SMILES),EC50 (NB4 leukemia cells),"apoptosis of MV4-11 cells (MV4-11 cells [1]; 30 nM, day 7)","apoptosis of MV4-11 cells (MV4-11 cells [1]; 30 nM, day 14)","apoptosis of MV4-11 cells (MV4-11 cells [1]; 300 nM, day 7)","apoptosis of MV4-11 cells (MV4-11 cells [1]; 300 nM, day 14)",EC50 (U937 leukemia cells),cell populations expressing high levels of CD14 (MV4-11 cells [2]),EC50 [3],expression of HoxA9 and Meis1 [4],cellular levels of H3K4me2 (H3K4me2 in MV4-11 cells),EC50 [5],expression of hematopoietic differentiation and pro-apoptotic gene sets (GSEA) [6],"apoptosis of MV4-11 cells (MV4-11 cells [1]; 0.1 μM, 7 days)","apoptosis of MV4-11 cells (MV4-11 cells [1]; 0.1 μM, 14 days)","apoptosis of MV4-11 cells (MV4-11 cells [1]; 1 μM, 7 days)","apoptosis of MV4-11 cells (MV4-11 cells [1]; 1 μM, 14 days)",CD11b+ cells (MV4-11 cells [2]; 1 μM)
CN1CCN(C(=O)CNC2CC2c2ccc(OCc3ccccc3)cc2)CC1 (stereo not shown) [Compound 1],19.4 µM,12%,20%,13%,26%,18.9 µM,> 90%,0.43 µM,significantly decrease the expression of both HoxA9 and Meis1 in a dose-dependent manner,increase cellular levels of H3K4me2 in a dose-dependent manner,3.7 µM,significant upregulation,–,–,–,–,–
CN1CCN(C(=O)CNC2CC2c2ccc(-c3ccc(F)nc3)cc2)CC1 (stereo not shown) [Compound 2],18.9 µM,–,–,–,–,34.6 µM,> 90%,0.52 µM,significantly decrease the expression of both HoxA9 and Meis1 in a dose-dependent manner,increase cellular levels of H3K4me2 in a dose-dependent manner,10 µM,significant upregulation,11%,13%,45%,49%,19.5%
